Data on one compound can be found in patent publication US11413239B2, “Pharmaceutical composition of tapentadol for nasal administration” (Torrent Pharmaceuticals Ltd., priority 2011, dated 2022).

Each structure is given as a SMILES string.

The conditions of series [1]: cited from earlier work.
Series [2] in a line: Crystal formation in concentrated tapentadol solution on storage. The class given is physicochemical. To be noted: increased concentration of tapentadol in solution, stored for more than 3 days. An excerpt: This makes the formulation non-homogeneous and therefore non-suitable for nasal administration. This crystal growth may further leads to altered therapeutic effect of the drug. Present invention overcomes this problem by providing a composition, wherein no such crystal growth is observed in the composition comprising high concentration of drug, when stored for longer duration.

On to `CC[C@@H](c1cccc(O)c1)[C@@H](C)CN(C)C.Cl` [Tapentadol, 3-[(1R,2R)-3-(dimethylamino)-1-ethyl-2-methylpropyl]phenol], for which the clearance in series [1] (Eur. J. Drug Met and Pharmacokinetics 2007, 32, 163-169) is given as 1468.+−.122 mL/min. Further, in series [1] (after oral dosing), the “time of maximum serum concentration” value is “around 1.25 hours”. In series [1] (given orally), the parent compound metabolized entry is listed as “About 97%”. Moreover, the “time to absorb after administration” value in series [1] (oral formulations) is “at least 45 minutes”. The “crystal formation on storage” value in series [2] is on record as “formation of crystals”.
